Measurements from patent US10512268B2, “Herbicidal compounds” (Syngenta Participations AG, priority 2015, dated 2019).

Experiments:
Format in all cases: in vivo
[1] = test system: Setaria faberi (SETFA); assay: Further testing, pre-emergence application; conditions: 1000 g/h, after 13 days
Experimental: (§1) Seeds of a variety of test species are sown in standard soil in pots (Lolium perenne (LOLPE), Solanum nigrum (SOLNI), Amaranthus retoflexus (AMARE), Setaria faberi (SETFA), Echinochloa crus-galli (ECHCG), Ipomoea hederacea (IPOHE)). After cultivation for one day (pre-emergence) or after 8 days cultivation (post-emergence) under controlled conditions in a glasshouse (at 24/16° C., day/night; 14 hours light; 65% humidity), the plants are sprayed with an aqueous spray solution derived from the formulation of the technical active ingredient in acetone/water (50:50) solution containing 0.5% Tween 20 (polyoxyethelyene sorbitan monolaurate, CAS RN 9005-64-5). Compounds are applied at 1000 g/h unless otherwise stated. The test plants are then grown in a glasshouse under controlled conditions in a glasshouse (at 24/16° C., day/night; 14 hours light; 65% humidity) and watered twice daily. After 13 days for pre and post-emergence, the test is evaluated for the percentage damage caused to the plant. The biological activities are shown in the following table on a five point scale (5=80-100%; 4=60-79%; 3=40-59%; 2=20-39%; 1=0-19%).

[2] = test system: Amaranthus retoflexus (AMARE); assay: Further testing, pre-emergence application; conditions: 1000 g/h, after 13 days
Experimental: as §1

[3] = test system: Lolium perenne (LOLPE); assay: Further testing, pre-emergence application; conditions: 1000 g/h, after 13 days
Experimental: as §1

[4] = test system: Echinochloa crus-galli (ECHCG); assay: Further testing, pre-emergence application; conditions: 1000 g/h, after 13 days
Experimental: as §1

[5] = test system: Solanum nigrum (SOLNI); assay: Further testing, pre-emergence application; conditions: 1000 g/h, after 13 days
Experimental: as §1

[6] = test system: Ipomoea hederacea (IPOHE); assay: Further testing, pre-emergence application; conditions: 1000 g/h, after 13 days
Experimental: as §1

[7] = test system: Bidens pilosa (BIDPI); assay: Comparative testing, glasshouse herbicide test, spray one day after sowing
Experimental: (§2) Seeds of a variety of test species are sown in standard soil in pots. After cultivation for one day under controlled conditions in a glasshouse (at 24/16° C., day/night; 14 hours light; 65% humidity), an aqueous spray solution derived from the formulation of the technical active ingredient in 0.6 ml acetone and 45 ml formulation solution containing 10.6% Emulsogen EL (Registry number 61791-12-6), 42.2% N-methyl pyrrolidone, 42.2% dipropylene glycol monomethyl ether (CAS RN 34590-94-8) and 0.2% X-77 (CAS RN 11097-66-8) is applied.
(§3) The test plants are then grown in a glasshouse under controlled conditions in a glasshouse (at 24/16° C., day/night; 14 hours light; 65% humidity) and watered twice daily. After 21 days, the test is evaluated (100=total damage to plant; 0=no damage to plant). Test plants (weed species) include: Alopecurus myosuroides (ALOMY), Bidens pilosa (BIDPI), Euphorbia heterophylla (EPHHL), Lolium perenne (LOLPE), Panicum milaceum (PANMI), Sida spinosa (SIDSP) and Stellaria media STEME).

[8] = test system: Sida spinosa (SIDSP); assay: as above
Experimental: as §2, §3

[9] = test system: Stellaria media (STEME); assay: as above
Experimental: as §2, §3

[10] = test system: Panicum milaceum (PANMI); assay: as above
Experimental: as §2, §3

[11] = test system: Euphorbia heterophylla (EPHHL); assay: as above
Experimental: as §2, §3

[12] = test system: Lolium perenne (LOLPE); assay: as above
Experimental: as §2, §3

[13] = test system: Alopecurus myosuroides (ALOMY); assay: as above
Experimental: as §2, §3

[14] = test system: Setaria faberi (SETFA); assay: Further testing, post-emergence application; conditions: 1000 g/h, after 13 days
Experimental: as §1

[15] = test system: Amaranthus retoflexus (AMARE); assay: Further testing, post-emergence application; conditions: 1000 g/h, after 13 days
Experimental: as §1

[16] = test system: Lolium perenne (LOLPE); assay: Further testing, post-emergence application; conditions: 1000 g/h, after 13 days
Experimental: as §1

[17] = test system: Echinochloa crus-galli (ECHCG); assay: Further testing, post-emergence application; conditions: 1000 g/h, after 13 days
Experimental: as §1

[18] = test system: Solanum nigrum (SOLNI); assay: Further testing, post-emergence application; conditions: 1000 g/h, after 13 days
Experimental: as §1

[19] = test system: Ipomoea hederacea (IPOHE); assay: Further testing, post-emergence application; conditions: 1000 g/h, after 13 days
Experimental: as §1

[20] = Rate 125, evaluated after 21 days
[21] = Rate 250, evaluated after 21 days

## Cn1nnnc1NC(=O)c1nn(C)c(=O)c(C2CCCCC2)c1Cl [Compound 1.001]
[1]
  percentage damage caused to the plant, five point scale: 5 (5=80-100%)
[2]
  percentage damage caused to the plant, five point scale: 5 (5=80-100%)
[3]
  percentage damage caused to the plant, five point scale: 5 (5=80-100%)
[4]
  percentage damage caused to the plant, five point scale: 5 (5=80-100%)
[5]
  percentage damage caused to the plant, five point scale: 5 (5=80-100%)
[6]
  percentage damage caused to the plant, five point scale: 5 (5=80-100%)
[7]; [20]
  damage to plant (100=total damage to plant; 0=no damage to plant): 100
[7]; [21]
  damage to plant (100=total damage to plant; 0=no damage to plant): 100
[8]; [20]
  damage to plant (100=total damage to plant; 0=no damage to plant): 90
[8]; [21]
  damage to plant (100=total damage to plant; 0=no damage to plant): 90
[9]; [20]
  damage to plant (100=total damage to plant; 0=no damage to plant): 100
[9]; [21]
  damage to plant (100=total damage to plant; 0=no damage to plant): 100
[10]; [20]
  damage to plant (100=total damage to plant; 0=no damage to plant): 80
[10]; [21]
  damage to plant (100=total damage to plant; 0=no damage to plant): 80
[11]; [20]
  damage to plant (100=total damage to plant; 0=no damage to plant): 90
[11]; [21]
  damage to plant (100=total damage to plant; 0=no damage to plant): 90
[12]; [20]
  damage to plant (100=total damage to plant; 0=no damage to plant): 60
[12]; [21]
  damage to plant (100=total damage to plant; 0=no damage to plant): 60
[13]; [20]
  damage to plant (100=total damage to plant; 0=no damage to plant): 40
[13]; [21]
  damage to plant (100=total damage to plant; 0=no damage to plant): 40
[14]
  percentage damage caused to the plant, five point scale: 5 (5=80-100%)
[15]
  percentage damage caused to the plant, five point scale: 5 (5=80-100%)
[16]
  percentage damage caused to the plant, five point scale: 5 (5=80-100%)
[17]
  percentage damage caused to the plant, five point scale: 5 (5=80-100%)
[18]
  percentage damage caused to the plant, five point scale: 5 (5=80-100%)
[19]
  percentage damage caused to the plant, five point scale: 5 (5=80-100%)
